Assay results as given in patent EP0590919A1, “Therapeutic agents for parkinson's disease” (KYOWA HAKKO KOGYO CO., LTD., priority 1992, dated 1994).

How the values were obtained:
dd-strain male mice = assay: Acute toxicity test (minimum lethal dose, oral); format: in vivo; settings: oral administration, three mice per group, mortality seven days after administration
Protocol: Test compounds were orally administered to groups of dd-strain male mice weighing 20 ± 1 g, each group consisting of three mice. Seven days after the administration, minimum lethal dose (MLD) of each compound was determined by observing the mortality.

A₂ receptor = biological target: T1, A₂ receptor (Rattus norvegicus, UniProt P30543); assay: Adenosine A₂ receptor binding test (³H-CGS 21680 binding); settings: [^3H]CGS 21680 was used, rat corpus striatum, read-out: A2 Receptor Inhibition (%); for inhibition at 1 µM: 10^-6M; for inhibition at 0.1 µM: 10^-7M
T1 construct: from tissue; host or cells: rat corpus striatum membrane preparation
Protocol: The similar procedure as in the above-described adenosine A₁ receptor binding test was repeated using rat corpus striatum to obtain the final precipitate of the tissue thereof. The precipitate was suspended in 50 mM Tris HCl buffer containing 10 mM magnesium chloride and 0.02 unit/mg tissue of adenosine deaminase (manufactured by Sigma Co.) to give a tissue concentration of 5 mg (wet weight)/ml.
The similar procedure as above was repeated to determine the radioactivity bound to the A₂ receptors using 50 µl of CGS 21680 labeled with tritium [³H-2-[p-(2-carboxyethyl)-phenethylamino]-5'-(N-ethylcarboxamide)adenosine: 40 Ci/mmol, manufactured by New England Nuclear Co. (J. Pharmacol. Exp. Ther., 251, 888 (1989)] (final concentration: 4.0 nM) in place of 50 µl of the mixture of N-ethylcarboxamidoadenosine labeled with tritium (³H-NECA: 26 Ci/mmol, manufactured by Amersham Co.) (final concentration: 3.8 nM) and cyclopentyladenosine (CPA, manufactured by Sigma Co.) (final concentration: 50 nM).
The inhibition rate of the test compound against the binding of A₂ receptors (³H-CGS 21680 binding) was calculated by the following equation: [formula] [Notes] • 1. "B" means the amount of radioactivity of ³H-CGS 21680 bound in the presence of a test compound at a concentration shown in Table 4. • 2. "T" means the amount of radioactivity of ³H-CGS 21680 bound in the absence of a test compound. • 3. "N" means the amount of radioactivity of ³H-CGS 21680 bound in the presence of 100 µM CPA.

[1] = tested on: Haloperidol-Induced Catalepsy; assay: Effect on haloperidol-induced catalepsy; format: in vivo, mice; settings: 10 mg/kg orally; for Number of the Animals Showing Remission: of five mice, catalepsy score not more than 4 points; for Remission Rate (%): rate of decrease in total score based on control group; for Total Score: total catalepsy score of five mice (25 points at the full), haloperidol 1.0 mg/kg i.p.
Protocol: Haloperidol (Janssen Pharmaceutica) suspended in 0.3% CMC was intraperitoneally administered to each mouse at a dose of 1.0 mg/kg. Test compounds were suspended in 0.3% CMC or in injectable distilled water (Otsuka Pharmaceutical Co., Ltd.) containing Tween 80. L-DOPA (Kyowa Hakko Kogyo Co., Ltd.) and benserazide hydrochloride (Kyowa Hakko Kogyo Co., Ltd.) were suspended in 0.3% CMC. One hour after the haloperidol administration, the test compound suspensions and the control suspension [injectable distilled water (Otsuka Pharmaceutical Co., Ltd.) containing Tween 80] containing no test compound were orally administered to separate groups of the mice (0.1 ml per 10 g of body weight). One hour after the administration of the test compound, the forelimbs of each mouse and subsequently the hindlimbs of the same mouse were placed on a 4.5 cm-high, 1.0 cm-wide bar and catalepsy was estimated. […] The catalepsy score and the standard of judgment are shown below. […] The number of the animals showing remission against catalepsy is the number of the mice for which the catalepsy score was not more than 4 points. […] The ED₅₀ values were calculated by Probit analysis.

T1 sequence (P30543 whole entry): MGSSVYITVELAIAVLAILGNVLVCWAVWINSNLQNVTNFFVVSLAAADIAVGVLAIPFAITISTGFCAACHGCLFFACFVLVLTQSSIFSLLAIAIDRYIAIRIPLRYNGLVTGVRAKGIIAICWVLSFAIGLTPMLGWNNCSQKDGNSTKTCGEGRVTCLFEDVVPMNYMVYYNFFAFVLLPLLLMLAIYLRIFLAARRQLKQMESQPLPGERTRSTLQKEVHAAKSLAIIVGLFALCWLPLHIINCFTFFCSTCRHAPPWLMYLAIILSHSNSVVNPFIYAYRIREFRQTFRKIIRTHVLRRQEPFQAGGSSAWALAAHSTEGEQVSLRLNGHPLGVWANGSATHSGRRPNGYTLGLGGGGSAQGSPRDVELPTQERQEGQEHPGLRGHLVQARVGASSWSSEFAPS

| SMILES | MLD (dd-strain male mice) [mg/kg] | inhibition at 1 µM (A₂ receptor) [%] | inhibition at 0.1 µM (A₂ receptor) [%] | Number of the Animals Showing Remission [1] | Remission Rate (%) [1] [%] | Total Score [1] |
| --- | --- | --- | --- | --- | --- | --- |
| CCn1c(=O)c2c(nc(/C=C/c3ccc(F)cc3)n2C)n(CC)c1=O [Compound 84, (E)-1,3-Diethyl-8-(4-fluorostyryl)-7-methylxanthine] | > 100 | 100 | 82 | 4 | 32 | 17 |
| CCn1c(=O)c2c(nc(/C=C/c3cccc(OC)c3)n2C)n(CC)c1=O [Compound 40, (E)-1,3-Diethyl-8-(3-methoxystyryl)-7-methylxanthine] | > 300 | 98 | 88 | 5 | 88 | 3 |
| CCn1c(=O)c2c(nc(/C=C/c3cccc([N+](=O)[O-])c3)n2C)n(CC)c1=O [Compound 90, (E)-1,3-Diethyl-7-methyl-8-(3-nitrostyryl)xanthine] | > 100 | 94 | 85 | 4 | 44 | 14 |
| CCn1c(=O)c2c(nc(/C=C/c3ccc(OCc4ccccc4)cc3)n2C)n(CC)c1=O [Compound 113, (E)-8-(4-Benzyloxystyryl)-1,3-diethyl-7-methylxanthine] | > 100 | 68 | 34 | 3 | 24 | 19 |
| CCn1c(=O)c2c(nc(/C=C/c3ccc(O)cc3)n2C)n(CC)c1=O [Compound 112, (E)-1,3-Diethyl-8-(4-hydroxystyryl)-7-methylxanthine] | > 100 | 95 | 79 | 5 | 84 | 4 |
| CCn1c(=O)c2c(nc(/C=C/c3ccc(C)cc3)n2C)n(CC)c1=O [Compound 44, (E)-1,3-Diethyl-7-methyl-8-(4-methylstyryl)xanthine] | > 100 | 103 | 64 | 3 | 32 | 17 |
| CCn1c(=O)c2c(nc(/C=C/c3cccc(Br)c3)n2C)n(CC)c1=O [Compound 92, (E)-8-(3-Bromostyryl)-1,3-diethyl-7-methylxanthine] | > 100 | 103 | 93 | 4 | 52 | 12 |
| CCn1c(=O)c2c(nc(/C=C/c3cc(C(F)(F)F)cc(C(F)(F)F)c3)n2C)n(CC)c1=O [Compound 86, (E)-8-[3,5-Bis(trifluoromethyl)styryl]-1,3-diethyl-7-methylxanthine] | > 100 | 73 | 29 | 3 | 36 | 16 |
| CCn1c(=O)c2c(nc(/C=C/c3ccc(OC)c(F)c3)n2C)n(CC)c1=O [Compound 103, (E)-1,3-Diethyl-8-(3-fluoro-4-methoxystyryl)-7-methylxanthine] | > 100 | 102 | 75 | 3 | 36 | 16 |
| CCn1c(=O)c2c(nc(/C=C/c3ccc(Br)cc3)n2C)n(CC)c1=O [Compound 78, (E)-8-(4-Bromostyryl)-1,3-diethyl-7-methylxanthine] | > 100 | 89 | 68 | 3 | 28 | 18 |
| CCn1c(=O)c2c(nc(/C=C/c3ccc(OCOC)cc3)n2C)n(CC)c1=O [Compound 82, (E)-1,3-Diethyl-8-(4-methoxymethoxystyryl)-7-methylxanthine] | > 100 | 98 | 86 | 5 | 64 | 9 |
| CCn1c(=O)c2c(nc(/C=C/c3cccc(OC)c3[N+](=O)[O-])n2C)n(CC)c1=O [Compound 64, (E)-1,3-Diethyl-8-(3-methoxy-2-nitrostyryl)-7-methylxanthine] | > 100 | 94 | 89 | 4 | 36 | 16 |
| CCn1c(=O)c2c(nc(/C=C/c3ccc(O)c(O)c3)n2C)n(CC)c1=O [Compound 110, (E)-8-(3,4-Dihydroxystyryl)-1,3-diethyl-7-methylxanthine] | > 100 | 96 | 61 | 3 | 20 | 20 |
| CCn1c(=O)c2c(nc(/C=C/c3cccc(F)c3C)n2C)n(CC)c1=O [Compound 109, (E)-1,3-Diethyl-8-(3-fluoro-2-methylstyryl)-7-methylxanthine] | > 100 | 96 | 97 | 5 | 84 | 4 |
| CCn1c(=O)c2c(nc(/C=C/c3cccc(Oc4ccccc4)c3)n2C)n(CC)c1=O [Compound 120, (E)-1,3-Diethyl-7-methyl-8-(3-phenoxystyryl)xanthine] | > 100 | 75 | 89 |  |  |  |
| CCn1c(=O)c2[nH]c(/C=C/c3cc4c(cc3Br)OCO4)nc2n(CC)c1=O [Compound 95, (E)-8-(2-Bromo-4,5-methylenedioxystyryl)-1,3-diethylxanthine] | > 100 | 89 | 75 |  |  |  |
